Source: US20240165114A1, “TREATMENT OF DIABETIC NEPHROPATHY WITH AN sGC STIMULATOR” (Cyclerion Therapeutics, Inc., priority 2019, published 2024)

Experiments:
[1] = Plasma IW-1973 concentrations / population PK in the Phase 2 study; format: in vivo, human
Procedure: Plasma IW-1973 concentrations were measured for pharmacokinetic determinations.
The population PK approach based on sparse PK data was used to determine exposure (AUC) and oral clearance (CL/F) of IW-1973. Influence of patient demographics (eg, age, race) on exposure was evaluated. In addition, exposure-effect (such as hemodynamic, exploratory biomarkers, efficacy, and safety parameters) relationships were explored. Effects of concomitant medications on IW-1973 PK was also evaluated.
Praliciguat concentrations were measured using a validated liquid chromatography tandem mass spectrometry method, as previously described (Hanrahan J P, et al. “A Randomized, Placebo-Controlled, Multiple-Ascending-Dose Study to Assess the Safety, Tolerability, Pharmacokinetics, and Pharmacodynamics of the Soluble Guanylate Cyclase Stimulator Praliciguat in Healthy Subjects” Clin Pharmacol Drug Dev. 2019, 8(5):564-575). Population PK analysis was performed using NONMEM 7.4 (Icon Development Solutions, Ellicott City, MD) to update an existing model established with data from three Phase 1 studies in healthy subjects and two phase 2a studies in patients with stable type 2 diabetes mellitus (T2D) and hypertension. The influence of patient demographics, renal function and concomitant medications on exposure were evaluated, and estimates of exposure (AUC) and oral clearance (CL/F) were determined.

[2] = system: adult patients with type 2 diabetes mellitus with albuminuria; assay: Phase 2 study: change from baseline in urine albumin to creatinine ratio (UACR); format: in vivo, human; conditions: for Between PRL and PBO Group Geometric Mean % Change UACR from Baseline: placebo adjusted; for UACR: Mean CFB at Weeks 8 & 12, Placebo Adjusted / UACR: Mean CFB at Weeks 8 & 12, Within Group: text b231-232 says Week 12
Text: A Multicenter, Randomized, Double-blind, Placebo-controlled, Phase2 Study to Evaluate the Safety and Efficacy of IW-1973 in Patients with Type 2 Diabetes with Albuminuria Treated with Renin-Angiotensin System Inhibitors
The primary objectives of this clinical study (Clinical Trials.gov Identifier NCT03217591) were to assess the safety and tolerability and to evaluate the effect of oral IW-1973 on renal function when administered daily for approximately 12 weeks to adult patients with type 2 diabetes mellitus with albuminuria who were on a stable regimen of renin-angiotensin system inhibitors ([…] or ARBs).
The primary efficacy endpoint of this trial was the change from baseline in Urine Albumin to Creatinine Ratio (UACR) at Weeks 8 and 12. UACR was determined as the concentration of urine albumin [mg/dL] divided by the concentration of urine creatinine [g/dL]) from urinalysis. First morning void urine samples were collected. To reduce variability, the measurement of UACR was the average of 2-first morning void tests at each timepoint.
This multicenter, randomized, double-blind, placebo-controlled, parallel-group study evaluated 2 dose levels of IW-1973 compared with placebo. The study population consisted of adult patients with type 2 diabetes mellitus, albuminuria, and impaired renal function. Patients had to have been taking antihyperglycemic medications for at least 12 weeks with their regimen being stable (ie, drug and dose) for at least 28 days before the Randomization Visit. Additionally, patients had to have been on a stable regimen of angiotensin-converting enzyme inhibitor (ACEi) or an angiotensin receptor blocker (ARB), for at least 28 days before the Randomization Visit. For more details, see Inclusion Criteria below. A total of 156 patients (approximately 50 patients per arm) were stratified by baseline estimated glomerular filtration rate (eGFR) into three groups: eGFR 30 to 45, >45 to 60, and >60 to 75 mL/min/1.73 m^2) and randomized approximately 1:1:1 to total daily 20 mg IW-1973, 40 mg IW-1973, or placebo.
Treatment Period: The Treatment Period began on Day 1 at Randomization (there was no Day 0) and ended after the End of Treatment Visit on Day 87 (±3). Patients were stratified in one of three groups by baseline eGFR (ie, eGFR 30 to 45, >45 to 60, and >60 to 75 mL/min/1.73 m2) and randomized in an approximate1:1:1 ratio to receive 20 mg IW-1973, 40 mg IW-1973, or placebo for approximately 12 weeks.
Dosing on Days 1 to 7 (±1) was BID (twice daily), morning and evening; dosing on Day 8 (±1) and onward was QD (once daily), 2 tablets in the morning. At the Randomization Visit on Day 1, patients received their morning dose of study drug in the clinic and underwent safety, efficacy, and pharmacokinetic (PK) assessments, including blood and urine collections at prespecified times. Patients stayed in the clinic at least 6 hours postdose and were able to leave the clinic at the Investigator's discretion following all study procedures. At the Week 1 Visit on Day 8 (±1), patients returned to the clinic and received their first QD dose of study drug in the clinic. Patients underwent safety, efficacy, and PK assessments, including blood and urine collections at prespecified times. Patients stayed in the clinic at least 6 hours postdose and were able to leave the clinic at the Investigator's discretion following all study procedures. At the Week 4 (Day 29±3), Week 8 (Day 57±3), and End of Treatment (Day 87±3) Visits, patients returned to the clinic for study drug administration; safety, efficacy, and PK assessments; and study drug supply, if applicable.
One week at 10 mg BID followed by 20 mg QD for the remainder of the trial, i.e., a 20 mg total daily dosage; or
One week at 20 mg BID, followed by 40 mg QD for the remainder of the trial, i.e., a 40 mg total daily dosage.

[3] = ITT, Week 12, PRL 20 mg total daily
[4] = ITT, Week 12, PRL 40 mg total daily
[5] = ITT, Weeks 8 & 12, PRL 20 mg total daily

Q: Which “plasma exposure versus dose” value ([1]; 20 mg and 40 mg total daily oral dose) does the source give for `OC(CNc1nc(-c2cc(-c3ccon3)n(Cc3ccccc3F)n2)ncc1F)(C(F)(F)F)C(F)(F)F` [Compound I, praliciguat] here?
A: Its value is “dose-proportional exposure”.

Q: What about the “time to steady state of plasma concentrations” value ([1]; daily oral dosing) of the same compound?
A: Its value is at most 4 weeks.

Q: What about the “route of elimination (renal excretion)” value ([1]; metabolized in the liver) of the same compound?
A: The value was “negligible renal excretion”.

Q: And the “Within Group Geometric Mean % Change UACR from Baseline” value [2, 3]?
A: Its value is −35.2%.

Q: What about the “Between PRL and PBO Group Geometric Mean % Change UACR from Baseline” value [2, 3] of the same compound?
A: Its value is −23.9%.

Q: And the “Within Group Geometric Mean % Change UACR from Baseline” value [2, 4]?
A: The value was −26.4%.

Q: And the “Between PRL and PBO Group Geometric Mean % Change UACR from Baseline” value [2, 4]?
A: The value was −13.6%.

Q: And the “Within Group Geometric Mean % Change UACR from Baseline” value ([2]; ITT, Week 12, PRL Combined)?
A: The value was −30.9%.

Q: And the “Between PRL and PBO Group Geometric Mean % Change UACR from Baseline” value ([2]; ITT, Week 12, PRL Combined)?
A: The value was −18.9%.

Q: What about the “Within Group Geometric Mean % Change UACR from Baseline” value [2, 5] of the same compound?
A: The value was −28.4%.

Q: What about the “Between PRL and PBO Group Geometric Mean % Change UACR from Baseline” value [2, 5] of the same compound?
A: Its value is −16.0%.

Q: What about the “Within Group Geometric Mean % Change UACR from Baseline” value ([2]; ITT, Weeks 8 & 12, PRL 40 mg total daily) of the same compound?
A: Its value is −27.3%.

Q: What about the “Within Group Geometric Mean % Change UACR from Baseline” value ([2]; ITT, Weeks 8 & 12, PRL Combined (20 and 40 mg)) of the same compound?
A: The value was −27.8%.

Q: And the “placebo-adjusted reduction (mean percent decrease) from baseline in UACR” value ([2]; ITT, combined praliciguat groups, Weeks 8 and 12)?
A: The value was 15%.

Q: And the “reduction from baseline in UACR” value ([2]; ITT, combined praliciguat groups, over 12 weeks (weeks 8 and 12))?
A: Its value is 28%.

Q: What about the “UACR Mean % CFB at Weeks 8 & 12, Placebo Adjusted” value (shortened to “UACR Mean % CFB … Placebo Adjusted”) ([2]; mITT Population, PRL 20 mg) of the same compound?
A: Its value is −14.8%.

Q: What about the “UACR Mean % CFB at Weeks 8 & 12, Within Group” value (from here on “UACR Mean % CFB … Within Group”) ([2]; mITT Population, PRL 20 mg) of the same compound?
A: The value was −18.4%.

Q: What about the “UACR: Mean CFB at Weeks 8 & 12, Placebo Adjusted” value (“UACR: Mean CFB … Placebo Adjusted” for short) ([2]; mITT Population, PRL 20 mg) of the same compound?
A: Its value is −21.5%.

Q: And the “UACR: Mean CFB at Weeks 8 & 12, Within Group” value (“UACR: Mean CFB … Within Group” below) ([2]; mITT Population, PRL 20 mg)?
A: Its value is −24.7%.

Q: And the “UACR Mean % CFB … Placebo Adjusted” value ([2]; mITT Population, PRL 40 mg)?
A: Its value is −25.1%.

Q: And the “UACR Mean % CFB … Within Group” value ([2]; mITT Population, PRL 40 mg)?
A: The value was −28.3%.

Q: And the “UACR: Mean CFB … Placebo Adjusted” value ([2]; mITT Population, PRL 40 mg)?
A: Its value is −24.2%.

Q: What about the “UACR: Mean CFB … Within Group” value ([2]; mITT Population, PRL 40 mg) of the same compound?
A: The value was −27.4%.

Q: And the “UACR Mean % CFB … Placebo Adjusted” value ([2]; mITT Population, PRL Combined)?
A: The value was −20.1%.

Q: What about the “UACR Mean % CFB … Within Group” value ([2]; mITT Population, PRL Combined) of the same compound?
A: Its value is −23.5%.

Q: What about the “UACR: Mean CFB … Placebo Adjusted” value ([2]; mITT Population, PRL Combined) of the same compound?
A: The value was −22.9%.

Q: What about the “UACR: Mean CFB … Within Group” value ([2]; mITT Population, PRL Combined) of the same compound?
A: The value was −26.1%.

Q: What about the “placebo-adjusted mean percent decrease in UACR” value ([2]; mITT Population, combined praliciguat treatment groups, Week 12) of the same compound?
A: Its value is 23%.

Q: What about the “placebo-adjusted mean percent decrease from baseline in UACR” value ([2]; mITT Population, combined praliciguat treatment groups, Weeks 8 and 12) of the same compound?
A: Its value is 20%.

Q: And the “placebo-corrected mean reduction from baseline in UACR” value ([2]; mITT, participants with eGFR 30-45 mL/min/1.73 m^2 at baseline, 12-week treatment)?
A: The value was 30-40%.
